Where two headings read alike, the source gives them in different places.
Key:
human M2R = biological target: T1, human M2R (Homo sapiens, UniProt P08172); assay: GloSensor cAMP assay (Gi-mediated cAMP inhibition); assay type: cell-based; details: M2, agonist, N.A. = not active; for IC50: read-out: pIC50/pEC50 (Mean ± SEM) M2 (converted)
T1 construct: expressed in transfected cells; host or cells: HEK-293T
T1 sequence (P08172 1-466): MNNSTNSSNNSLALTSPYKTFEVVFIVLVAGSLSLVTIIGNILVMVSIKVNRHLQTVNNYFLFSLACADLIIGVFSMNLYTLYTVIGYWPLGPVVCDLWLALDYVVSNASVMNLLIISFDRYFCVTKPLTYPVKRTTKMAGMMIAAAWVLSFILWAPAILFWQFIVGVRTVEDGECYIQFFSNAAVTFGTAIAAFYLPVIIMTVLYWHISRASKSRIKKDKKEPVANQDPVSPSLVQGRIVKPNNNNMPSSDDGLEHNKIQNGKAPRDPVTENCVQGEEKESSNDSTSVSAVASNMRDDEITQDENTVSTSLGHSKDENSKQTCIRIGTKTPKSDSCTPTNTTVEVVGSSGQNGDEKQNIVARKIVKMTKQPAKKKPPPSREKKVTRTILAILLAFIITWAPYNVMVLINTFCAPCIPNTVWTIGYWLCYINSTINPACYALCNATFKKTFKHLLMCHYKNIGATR
Procedure: To measure M2 muscarinic receptor induced (Gi-mediated) cAMP inhibition, HEK-293T cells (procured from NCCS, Pune) were co-transfected with human M2R and luciferase based cAMP biosensor (pGloSensor™-22F plasmid; Promega) using PEImax method of transfection in the ratio of 1:1. The transfected cells were incubated at 37° C. in tissue culture incubator with 5% CO2 for 14-16 hours. For GloSensor cAMP assay, after overnight incubation, media from the plate was aspirated and 100 μl of sodium luciferin solution in drug buffer (1×HBSS (pH7.4) and 20 mM HEPES) was added to the cell plates. The plates were then incubated at 37° C. in tissue culture incubator with 5% CO2 for 90 minutes. After incubation, cells were treated with 20 μl of 6× diluted standard carbamoyl choline (10000 nM to 0.01 nM) along with test compounds (in triplicates) and were incubated in a humidified tissue culture incubator at 37° C. with 5% CO2 for 10-15 minutes to get a steady state condition. Ligand incubation was followed by addition of 20 μl of 7×(70 μM) forskoline (FSK) to the plate. FSK incubation was followed by incubation at 37° C. for 10-15 minutes and measurement of luminescence per well using luminescence plate reader (BMG Labtech). The results were plotted as inhibition of FSK stimulated cAMP response (relative luminescence units) using nonlinear regression analysis by Graph-Pad prism V.

human M3R = biological target: T2, human M3R (Homo sapiens, UniProt P20309); assay: NFAT-luciferase assay, M3; assay type: cell-based; set-up: IC50 activity, M3 muscarinic receptor antagonist: unit not given beside the values; details: for selectivity among muscarinic receptors (in words): M1, M3 and M5 antagonist profiling; for effectiveness relative to known drug darifenacin at M3: compared with darifenacin 8.9 pKi
T2 construct: expressed in transfected cells; host or cells: HEK-293T
Procedure: (§1) To measure the agonist or antagonist activity at M1, M3 and M5 muscarinic receptor, NFAT-luciferase activity was performed in HEK-293T cells (procured from NCCS, Pune) by co-transfecting with human M1R or M3R or M5R and pGL4.30 (luc2P/NFAT-RE/Hygro; Promega Corp,) in 96 well format. The transfected cells were incubated at 37° C. in tissue culture incubator with 5% CO2 for 14-16 hours. To determine the if the test compounds are agonist, the transfected cells were treated with either 20 μl/well of carbamoyl choline (as a positive control) at various concentrations (10000 nM to 0.01 nM) or with various concentrations of test compounds (in triplicates) and were further incubated for 12 hrs in a humidified tissue culture incubator at 37° C. with 5% CO2. For antagonist mode assay, test compound incubation was followed by addition of 20 μl of 7 μM carbamoylcholine (agonist) to the plate. Following 12-14 hrs of drug treatment, media from the plate was aspirated and 100 μl of sodium luciferin solution (10 mg/ml) was added and luminescence per well was recorded using luminescence plate reader (BMG Labtech).

human M1R = biological target: T3, human M1R (Homo sapiens, UniProt P11229); assay: NFAT-luciferase assay, M1; assay type: cell-based; details: antagonist
T3 construct: expressed in transfected cells; host or cells: HEK-293T
T3 sequence (P11229 1-460): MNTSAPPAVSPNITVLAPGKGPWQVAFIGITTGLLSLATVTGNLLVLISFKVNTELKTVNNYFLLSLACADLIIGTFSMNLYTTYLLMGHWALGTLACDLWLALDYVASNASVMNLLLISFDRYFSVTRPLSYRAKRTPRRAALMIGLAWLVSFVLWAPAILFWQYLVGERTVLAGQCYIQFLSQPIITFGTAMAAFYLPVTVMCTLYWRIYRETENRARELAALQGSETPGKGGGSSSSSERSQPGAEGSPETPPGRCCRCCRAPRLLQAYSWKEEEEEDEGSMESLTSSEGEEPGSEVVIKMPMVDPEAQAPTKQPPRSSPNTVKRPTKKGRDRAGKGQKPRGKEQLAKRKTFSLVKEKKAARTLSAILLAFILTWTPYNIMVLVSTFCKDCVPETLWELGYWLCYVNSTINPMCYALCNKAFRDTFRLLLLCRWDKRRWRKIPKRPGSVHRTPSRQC
Procedure: as §1

[1] = system: Scopolamine induced memory deficit; assay: Novel object recognition (NOR) test, scopolamine induced memory deficit; assay type: in vivo, mice; details: scopolamine alone 0.5 mg/kg i.p., vs vehicle, p<0.05
Source text: (§2) All animal experiments and procedures were executed in accordance with the guidelines established in the guide for the care and use of laboratory animals and were approved by the institutional animal ethics committee (IAEC) of CSIR-Central Drug Research Institute, Lucknow, India. In this study, male C57BL/6J mice (6-8 weeks old) weighing 22-25 g were used. They were housed on a 12-h light/dark cycle (lights on at 8.00 am) and food and water were provided ad libitum. Animals were acclimatized to the experimental room 30 minutes prior to the beginning of behavioral procedures. For experimental purpose, animals were randomly divided into four groups: vehicle, RG-02, scopolamine and scopolamine along with RG-02. In scopolamine along with RG-02 group, RG-02 (10 mg/kg, i.p) was injected thirty minutes prior to the scopolamine (0.5 mg/kg, i.p.) injections.
The NOR test was performed according to the protocol introduced by Ennaceur and Delacour (Ennaceur & Delacour, 1988) with slight modification.
The NOR task procedure consisted of three sessions—[…], familiarization and test session. During habituation session, the mouse was placed in an open field (Square box of 40×40×40 cm), facing the wall of the arena, and allowed to explore the entire arena for 10 minutes. Following habituation period of 10 minutes, the mouse was returned to its home cage.
Between every […] session, the whole arena was cleaned with 10% ethanol to reduce olfactory cues. […] During this session, the test animal was placed in the arena and was allowed to explore the entire arena with familiar and novel object, and its activity was also video recorded. To determine the retention of object memory, the recorded videos of test session were analyzed by independent observer who was unknown to treatment of mice to calculate the time spent in exploring both objects. Data are presented as % time of exploration of familiar or novel object, and discrimination index was calculated as per following equation: (Tn−Tf)/Tt: Discrimination Index […]

[2] = system: Scopolamine induced memory deficit; assay: Morris water maze (MWM) test, scopolamine induced learning deficit; assay type: in vivo, mice; details: scopolamine alone 0.5 mg/kg i.p.
Source text: as §2
The Morris water maze (MWM) test was performed according to Morris 1984, with slight modifications. Circular pool of dimensions-100 cm diameter and 45 cm depth, which was filled up to 25 cm from bottom with white colour water. Temperature of water was adjusted to 24-25° C. Pool was divided into four quadrants and a square platform of 10×10 cm in was placed into the tank at a fixed location in the centre of one of the four imaginary quadrants. Training sessions were conducted for 3 consecutive days and on 4th day a probe trial was performed. During training session, mouse was gently placed into the water facing the edge of the pool of one of the quadrant. If the mouse was able to find the platform before the 60 sec cut-off, it was allowed to stay over the platform for 5 more seconds followed by returning to its home cage. […] Total three trials/day were run for each mouse with minimum interval of 10-15 minutes between two trials, and latency to reach the platform was calculated. On the fourth day, for the probe trial, the platform was removed and the time spent in respective quadrant was calculated.

[3] = M3, antagonist, N.A. = not active, read-out: pIC50/pEC50 (Mean ± SEM) M3 (converted)

T2 sequence (P20309 whole entry): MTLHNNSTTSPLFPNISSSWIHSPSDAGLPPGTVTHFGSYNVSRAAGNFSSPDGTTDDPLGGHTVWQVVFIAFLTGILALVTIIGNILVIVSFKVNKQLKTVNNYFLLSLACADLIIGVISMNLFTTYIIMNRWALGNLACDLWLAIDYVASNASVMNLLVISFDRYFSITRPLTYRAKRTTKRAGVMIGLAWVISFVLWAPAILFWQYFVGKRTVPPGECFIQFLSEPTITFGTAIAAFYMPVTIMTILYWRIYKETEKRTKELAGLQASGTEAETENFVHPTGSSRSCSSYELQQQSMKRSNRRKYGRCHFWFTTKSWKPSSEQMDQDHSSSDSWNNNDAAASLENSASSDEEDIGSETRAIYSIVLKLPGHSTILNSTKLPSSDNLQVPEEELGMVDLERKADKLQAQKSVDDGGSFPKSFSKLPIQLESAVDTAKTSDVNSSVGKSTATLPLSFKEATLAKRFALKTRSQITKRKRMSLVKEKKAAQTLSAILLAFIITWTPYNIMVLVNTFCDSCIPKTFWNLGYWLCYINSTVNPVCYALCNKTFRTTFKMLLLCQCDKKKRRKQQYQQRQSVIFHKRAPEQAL

SMILES: O=C1CCC[C@@H]2[C@@H]1C[C@@]1(S(=O)(=O)c3ccccc3)C(=O)[C@@H]3c4ccccc4[C@H]1N32 [(−)-RG-02, (−)-(4aS,6S,6aR,11S,12aR)-6-(phenylsulfonyl)-1,2,3,4a,5,6,6a,12a-octahydro-6,11-methanoisoindolo[2,1-a]quinoline-4,13(11H)-dione]
- pIC50/pEC50 (Mean ± SEM) M2 (human M2R): 8.38 ± 0.35 (agonist)

SMILES: COC(=O)[C@@H]1c2ccccc2[C@@H]2[C@H](S(=O)(=O)c3ccccc3)C[C@@H]3C(=O)CCC[C@H]3N12 [RG-04, (4aS,6R,6aR,11S,12aR)-methyl 4-oxo-6-(phenylsulfonyl)-1,2,3,4,4a,5,6,6a,11,12a-decahydroisoindolo[2,1-a]quinoline-11-carboxylate]
- IC50 (human M2R): 566 nM

SMILES: CCOC(=O)[C@@H]1c2ccccc2[C@@H]2[C@H](S(=O)(=O)c3ccccc3)C[C@@H]3C(=O)CCC[C@H]3N12 [RG-05, (4aS,6R,6aR,11S,12aR)-ethyl 4-oxo-6-(phenylsulfonyl)-1,2,3,4,4a,5,6,6a,11,12a-decahydroisoindolo[2,1-a]quinoline-11-carboxylate]
- IC50 (human M2R): 2160 nM

SMILES: Cc1ccc(S(=O)(=O)[C@]23C[C@@H]4C(=O)CCC[C@H]4N4[C@H](C2=O)c2ccccc2[C@@H]43)cc1 [RG-06, (4aS,6S,6aR,11S,12aR)-6-tosyl-1,2,3,4a,5,6,6a,12a-octahydro-6,11-methanoisoindolo[2,1-a]quinoline-4,13(11H)-dione]
- antagonist activity at M3 receptor (in words) (human M3R): high affinity antagonist of M3 receptor
- selectivity among muscarinic receptors (in words) (human M3R): selective M3 muscarinic receptor antagonist
- IC50 (human M3R; [3]): 0.129 nM
- IC50 activity, M3 muscarinic receptor antagonist (human M3R; as worded in closing text): 9.89
- effectiveness relative to known drug darifenacin at M3 (human M3R): tenfold more effective

SMILES: Cc1ccc(S(=O)(=O)[C@]23C[C@H]4C(=O)CC[C@H]4N4[C@H](C2=O)c2ccccc2[C@@H]43)cc1 [RG-09, (3aR,5S,5aR,10S,11aR)-5-tosyl-3a,4,5,5a,10,11a-hexahydro-1H-5,10-methanocyclopenta[5,6]pyrido[2,1-a]isoindole-3,12(2H)-dione]
- antagonist activity at M3 receptor (in words) (human M3R): high affinity antagonist of M3 receptor
- selectivity among muscarinic receptors (in words) (human M3R): selective M3 muscarinic receptor antagonist
- IC50 (human M3R; as worded in closing text, read-out: IC50 activity, M3 muscarinic receptor antagonist (converted)): 0.102 nM
- effectiveness relative to known drug darifenacin at M3 (human M3R): tenfold more effective

SMILES: Cc1ccc(S(=O)(=O)[C@]23CC4=C(OS(=O)(=O)C(F)(F)F)CCC[C@H]4N4[C@H](C2=O)c2ccccc2[C@@H]43)cc1 [RG-13, (6S,6aR,11S,12aR)-13-oxo-6-tosyl-1,2,3,5,6,6a,11,12a-octahydro-6,11-methanoisoindolo[2,1-a]quinolin-4-yl trifluoromethanesulfonate]
- IC50 (human M1R; M1, N.A. = not active, read-out: pIC50/pEC50 (Mean ± SEM) M1 (converted)): 871 nM
- IC50 (human M1R; read-out: IC50 at M1 receptor): ≤ 1000 nM
- antagonist activity at M3 receptor (in words) (human M3R): high affinity antagonist of M3 receptor
- selectivity among muscarinic receptors (in words) (human M3R): nonselective muscarinic receptor antagonist
- IC50 (human M3R; [3]): 0.107 nM

SMILES: CN1[C@@H]2C[C@@H](OC(=O)[C@H](CO)c3ccccc3)C[C@H]1[C@@H]1O[C@@H]12 [scopolamine, reference compound]
- exploration time for the novel object [1]: marked reduction in the exploration time for the novel object
- latency to reach the platform ([2]; Day-3): increased latency to reach the platform
- time in quadrant with platform (probe trial) ([2]; vs vehicle or RG-02): spent lesser time in quadrant with platform
